The results in this text go back to ChEMBL document CHEMBL1130312, “Synthesis and receptor binding affinity of conformationally restricted retinoic acid analogues” (Bioorg Med Chem Lett, 1997).

Bounds are passed on as bounds.

Assay [1] addresses T1, Retinoic acid receptor RXR-gamma (Homo sapiens, UniProt P48443).
T1 sequence (P48443 whole entry): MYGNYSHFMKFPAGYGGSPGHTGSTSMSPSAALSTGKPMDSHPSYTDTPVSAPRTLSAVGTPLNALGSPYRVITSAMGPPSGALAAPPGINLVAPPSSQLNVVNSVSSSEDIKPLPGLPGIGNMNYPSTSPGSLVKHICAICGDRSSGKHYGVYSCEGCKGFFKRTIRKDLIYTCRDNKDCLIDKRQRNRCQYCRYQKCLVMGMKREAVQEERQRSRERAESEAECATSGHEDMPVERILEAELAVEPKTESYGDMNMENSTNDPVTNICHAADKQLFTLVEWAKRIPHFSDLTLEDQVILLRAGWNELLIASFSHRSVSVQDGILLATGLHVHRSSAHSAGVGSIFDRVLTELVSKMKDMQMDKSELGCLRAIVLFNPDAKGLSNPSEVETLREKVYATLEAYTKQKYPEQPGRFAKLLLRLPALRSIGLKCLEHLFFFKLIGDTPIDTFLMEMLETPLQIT
The assay is described as follows: Binding affinity towards Retinoic acid receptor RXR-gamma by displacing 3.4 nM 3[H]-9-cis-RA; No binding competition.

The target of assay [2] is T2, Retinoic acid receptor gamma (Homo sapiens, UniProt P13631).
T2 sequence (P13631 whole entry): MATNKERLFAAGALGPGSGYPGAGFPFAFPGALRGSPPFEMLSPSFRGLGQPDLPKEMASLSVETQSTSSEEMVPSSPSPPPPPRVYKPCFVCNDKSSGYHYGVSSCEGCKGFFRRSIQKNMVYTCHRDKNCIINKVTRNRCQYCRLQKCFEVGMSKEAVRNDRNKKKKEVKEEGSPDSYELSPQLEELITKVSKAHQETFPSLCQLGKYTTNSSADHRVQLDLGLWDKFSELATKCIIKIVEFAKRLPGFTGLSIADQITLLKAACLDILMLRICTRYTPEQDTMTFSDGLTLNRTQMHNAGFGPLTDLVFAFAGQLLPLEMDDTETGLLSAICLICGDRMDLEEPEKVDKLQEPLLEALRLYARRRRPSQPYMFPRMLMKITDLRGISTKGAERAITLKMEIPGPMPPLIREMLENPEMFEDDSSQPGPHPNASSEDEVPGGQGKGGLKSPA
The assay is described as follows: Binding affinity towards human Retinoic acid receptor gamma.

Assay [3] addresses T3, Retinoic acid receptor alpha (Homo sapiens, UniProt P10276).
T3 sequence (P10276 whole entry): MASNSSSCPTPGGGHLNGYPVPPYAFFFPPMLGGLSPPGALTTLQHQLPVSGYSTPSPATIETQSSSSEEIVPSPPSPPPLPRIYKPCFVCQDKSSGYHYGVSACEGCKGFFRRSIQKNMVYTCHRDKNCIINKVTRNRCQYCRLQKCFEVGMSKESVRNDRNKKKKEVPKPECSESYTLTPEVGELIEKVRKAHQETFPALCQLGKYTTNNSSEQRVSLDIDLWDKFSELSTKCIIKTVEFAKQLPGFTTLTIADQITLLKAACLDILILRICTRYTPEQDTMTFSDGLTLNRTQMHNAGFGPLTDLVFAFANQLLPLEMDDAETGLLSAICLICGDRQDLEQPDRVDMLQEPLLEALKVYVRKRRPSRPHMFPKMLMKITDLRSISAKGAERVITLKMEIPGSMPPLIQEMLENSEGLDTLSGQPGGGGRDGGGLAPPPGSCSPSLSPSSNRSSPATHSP
The assay is described as follows: Binding affinity towards human Retinoic acid receptor alpha.

The target of assay [4] is T1, Retinoic acid receptor RXR-gamma. The assay is described as follows: Binding affinity towards Retinoic acid receptor RXR-gamma by displacing 3.4 nM 3[H]-9-cis-RA.
The target in assay [5] is T4, Retinoic acid receptor beta (Homo sapiens, UniProt P10826).
T4 sequence (P10826 whole entry): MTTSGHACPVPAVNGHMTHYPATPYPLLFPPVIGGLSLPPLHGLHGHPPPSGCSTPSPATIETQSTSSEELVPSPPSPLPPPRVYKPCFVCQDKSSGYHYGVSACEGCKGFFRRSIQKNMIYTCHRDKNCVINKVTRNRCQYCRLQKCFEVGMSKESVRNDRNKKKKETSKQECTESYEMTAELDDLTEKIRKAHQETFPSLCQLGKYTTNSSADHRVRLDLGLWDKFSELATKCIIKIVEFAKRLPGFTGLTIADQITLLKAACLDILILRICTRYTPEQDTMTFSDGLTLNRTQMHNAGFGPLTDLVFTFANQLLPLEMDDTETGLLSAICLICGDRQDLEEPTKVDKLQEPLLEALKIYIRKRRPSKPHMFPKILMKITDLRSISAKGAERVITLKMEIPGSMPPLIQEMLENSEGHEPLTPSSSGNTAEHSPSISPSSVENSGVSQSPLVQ
The assay is described as follows: Binding affinity towards cRARbeta2 receptor by displacing 0.82 nM 3[H]all-trans-RA.

Assay [6] addresses T4, Retinoic acid receptor beta. The assay is described as follows: Binding affinity towards cRAR-beta-2 receptor by displacing 1.1 nM 3[H]-9-cis-RA.
For assay [7], the target named is T1, Retinoic acid receptor RXR-gamma. The assay is described as follows: Binding affinity towards Retinoic acid receptor RXR-gamma by displacing 3.4 nM 3[H]-9-cis-RA; IA = Inactive.
Assay [8] addresses T4, Retinoic acid receptor beta. The assay is described as follows: Binding affinity towards cRAR-beta-2 receptor by displacing 0.82 nM 3[H]-all-trans-RA; IA = Inactive.
Assay [9] has the same target. The assay is described as follows: Binding affinity towards cRAR-beta-2 receptor by displacing 1.1 nM 3[H]-9-cis-RA; IA = Inactive.

Broadly, the Ki is a dissociation constant, usually derived from enzyme kinetics or from competition with a known ligand. On to `CC1=C(/C=C/C(C)=C/C=C/C(C)=C/C(=O)O)C(C)(C)CCC1` [TRETINOIN], for which, in assay [1], the Ki result is “Not Active”.

Consider `CC(/C=C/C1CC1/C=C/C1=CC(C)(C)CCC1(C)C)=C\C(=O)O` (stereo not drawn), for which the Ki is 32 nM in [2]; 3.1 nM in assay [3]; more than 7200 nM in assay [4]; 11 nM in assay [5]; 13 nM in assay [6].

In the case of `CCOC(=O)[C@@H]1C[C@@]1(C)/C=C/C=C(C)/C=C/C1=C(C)CCCC1(C)C`, the Ki result in assay [7], in assay [8] and in [9] was “Not Active” each time.

With `CCOC(=O)[C@H]1C[C@@]1(C)/C=C/C=C(C)/C=C/C1=C(C)CCCC1(C)C`, the Ki entry in assay [7], in assay [8] and in assay [9] was “Not Active” in each case.

Take `CC(=C/C(=O)O)/C=C/C1CC1/C=C/C1=CC(C)(C)CCC1(C)C` (stereo not drawn): the Ki was more than 4000 nM in assay [2]; more than 4000 nM in [3]; more than 2800 nM in [4]; more than 1100 nM in assay [5]; more than 1200 nM in [6].

On to `C/C(=C\c1ccc(C(=O)O)cc1)c1ccc2c(c1)C(C)(C)CCC2(C)C`, for which, in assay [1], the Ki entry is “Not Active”.
